Assays:
adipose cells of rats = test: Evaluation of the sugar transportation activity (2-[14C(U)]-deoxy-D-glucose incorporation); format: cell-based, Wistar rats; details: concentration with reinforcing effect of 50% of that of insulin (100 nM) = 100%; rat adipose cells, 30 min pre-culture at 37° C., 5 min uptake
Description: 1. Preparation of Adipose Cells of Rats:
After the decapitation and venesection of 6 male Wistar rats (body weight: 150 to 200 g), an incision was made in the abdomen of each rat to extract 6 g in total of epididymal adipose tissues. The tissues were finely cut into 2 mm×2 mm pieces in 6 ml of KRH (Krebs-Ringer Hepes, composition: 130 mM of sodium chloride, 4.7 mM of potassium chloride, 1.2 mM of potassium dihydrogenphosphate, 1.2 mM of magnesium sulfate, 1 mM of calcium chloride and 25 mM of Hepes, pH=7.6) containing 5% of BSA (bovine serum albumin). 24 mg of collagenase (type I) was added thereto and the digestion treatment was conducted for about 40 minutes to obtain about 6 ml of isolated adipose cells. The collagenase was removed by the buffer exchange. 2% BSA/KRH solution was added to the residue for the re-suspension to obtain 45 ml of an adipose cell suspension.
2. Evaluation of the Sugar Transportation Activity:
The sugar transportation activity of the compound (I) of the present invention was evaluated with reference to a method described in a literature [Annual Review of Biochemistry, Vol. 55, p. 1059 (1986)]. In the test, 200 μL of the adipose cell suspension was poured in each polystyrene test tube, 100 μL of the solution of the test substance (by dilution of 10 mg/mL dimethyl sulfoxide solution with KRH) was added thereto, and the obtained mixture was shaken and then cultured at 37° C. for 30 minutes. The sugar transportation activity was evaluated by measuring the quantity of 2-[^14C(U)]-deoxy-D-glucose incorporated per a unit time. Namely, 2-[^14C(U)]-deoxy-D-glucose was added to the adipose cell suspension after the pre-culture (the final concentration: 0.5 μCi/sample). 5 minutes after, cytochalasin B (final concentration: 10 μM) was added to the mixture to terminate the sugar transportation. After forming a dinonyl phthalate layer, the obtained mixture was centrifuged to separate the adipose cells from the buffer. The quantity of 2-[^14C(U)]-deoxy-D-glucose contained in the adipose cell layer was determined with a liquid scintillation counter to determine the quantity of the incorporated sugar. In this evaluation system, when insulin (100 nM) having the effect of reinforcing the sugar transportation was used, the effect was about 7 times as high as that obtained in the insulin-free control group.
The results of the evaluation of the sugar transportation activity obtained by using 100 μg/mL of the compound (I) of the present invention are shown in Table 3. The sugar transportation activity in Table 3 was evaluated on the basis of the reinforcing effect of insulin (100 nM). The sugar transportation activity A in Table 3 was determined in terms of the concentration (EC50: μg/mL) of a test compound, having a reinforcing effect corresponding to 50% on the basis of the reinforcing effect of insulin (100 nM) having a reinforcing effect of 100%.
The symbols in Table 3 are as follows: • No: Compound No. in Tables 1 and 2, and • A: sugar transportation activity.

GK rats = test: Combinational effect with insulin secretagogue (gliclazide) using GK rats (Example 2); format: in vivo; details: combined with gliclazide, compared with alone groups, same experiment as Example 1
Description: The compound (II) (100 mg/kg) was orally administered to C57BL/6NCrj mice (11 week age, male) and soon after that, gliclazide (3 mg/kg) was orally administered. After administration, the blood was taken from their caudal veins over time to determine the blood glucose level. Area under the curve of blood glucose level changes until 70 minutes after the administration was set as an index and variations from a control group (Vehicle administered group) were compared.
The same experiment is conducted as that of Example 1 except that the compounds of the Compound Nos. 6, 8, 62, 80, 81, 88, 91, […], 105, 106, 129, 130, 131 and 132 in Tables 1 and 2 are used instead of the compound (II), and GK rats are used instead of normal mice.

KK-Ay mice = test: Combinational effect with biguanide (metformin) using KK-Ay mice (Example 4); format: in vivo; details: combined with metformin, compared with alone groups, same experiment as Example 3
Description: The compound (III) (30 mg/kg) was orally administered to C57BL/KsJ-db/bdJcl mice (10 week age, male) and soon after that, metformin (100 mg/kg) was orally administered. 60 minutes after administration, the blood was taken from their caudal veins to determine the blood glucose level.
The same experiment is conducted as that of Example 3 except that the compounds of the Compound Nos. 6, 8, 62, 80, 81, 88, 91, 96, 105, 106, 129, 130, 131 and 132 in Tables 1 and 2 are used instead of the compound (III), and KK-Ay mice are used instead of db/bd mice.

C57BL/KsJ-db/bdJcl mice [1] = test: Combinational effect with glitazone (pioglitazone) using db/db mice, oral glucose load (Examples 5 and 6); format: in vivo; details: single oral administration combined with pioglitazone 10 mg/kg/day oral for 10 days, compared with alone groups
Description: The oral glucose load experiments are conducted using C57BL/KsJ-db/bdJcl mice in the conditions with or without the oral administeration of pioglitazone (10 mg/kg/day) for 10 days and with or without a single oral administration of the compound (III).
The same experiment is conducted as that of Example 5 except that the compounds of the Compound Nos. 6, 8, 62, 80, 81, 88, 91, 96, 105, 106, 129, 130, 131 and 132 in Tables 1 and 2 are used instead of the compound (III).

C57BL/KsJ-db/bdJcl mice [2] = test: Combinational effect with insulin using db/db mice (Examples 7 and 8); format: in vivo; details: combined with insulin 0.2 U/kg, compared with alone groups, same experiment as Example 3
Description: The compound (III) (30 mg/kg) was orally administered to C57BL/KsJ-db/bdJcl mice (10 week age, male) and soon after that, metformin (100 mg/kg) was orally administered. 60 minutes after administration, the blood was taken from their caudal veins to determine the blood glucose level. The same experiment is conducted as that of Example 3 except that insulin (0.2 U/kg) is used instead of metformin. […] The same experiment is conducted as that of Example 7 except that the compounds of the Compound Nos. 6, 8, 62, 80, 81, 88, 91, 96, 105, 106, 129, 130, 131 and 132 in Tables 1 and 2 are used instead of the compound (III).

Structure (SMILES)	A: sugar transportation activity (EC50) (adipose cells of rats) [µg/mL]	hypoglycemic action (blood glucose level) (GK rats)	hypoglycemic action (blood glucose level) (KK-Ay mice)	hypoglycemic action (oral glucose load) (C57BL/KsJ-db/bdJcl mice [1])	hypoglycemic action (blood glucose level) (C57BL/KsJ-db/bdJcl mice [2])
COc1ccccc1[C@@H]1C2=C(CNC2=O)N[C@@H]2CCCC[C@H]2N1C(=O)CC(F)(F)F [Compound 6]	0.47	remarkable hypoglycemic action	remarkable hypoglycemic action	remarkable hypoglycemic action	remarkable hypoglycemic action
COc1ccccc1[C@@H]1C2=C(CNC2=O)N[C@@H]2CCCC[C@H]2N1C(=O)CO [Compound 8]	2	remarkable hypoglycemic action	remarkable hypoglycemic action	remarkable hypoglycemic action	remarkable hypoglycemic action
O=C1NCC2=C1[C@@H](c1ccccc1OC1CC1)N(C(=O)CO)[C@@H]1CCCC[C@H]1N2 [Compound 62]	0.5	remarkable hypoglycemic action	remarkable hypoglycemic action	remarkable hypoglycemic action	remarkable hypoglycemic action
CC(=O)N1[C@@H]2CCCC[C@H]2NC2=C(C(=O)NC2)[C@H]1c1ccccc1 [Compound 129]	–	remarkable hypoglycemic action	remarkable hypoglycemic action	remarkable hypoglycemic action	remarkable hypoglycemic action

Second part, led by results:

A: sugar transportation activity (EC50) (adipose cells of rats) [µg/mL]	Structure (SMILES)	hypoglycemic action (blood glucose level) (GK rats)	hypoglycemic action (blood glucose level) (KK-Ay mice)	hypoglycemic action (oral glucose load) (C57BL/KsJ-db/bdJcl mice [1])	hypoglycemic action (blood glucose level) (C57BL/KsJ-db/bdJcl mice [2])
5	CSc1ccccc1[C@@H]1C2=C(CNC2=O)N[C@@H]2CCCC[C@H]2N1C(C)=O [Compound 80]	remarkable hypoglycemic action	remarkable hypoglycemic action	remarkable hypoglycemic action	remarkable hypoglycemic action
2	CSc1ccccc1[C@@H]1C2=C(CNC2=O)N[C@@H]2CCCC[C@H]2N1C(=O)CO [Compound 81]	remarkable hypoglycemic action	remarkable hypoglycemic action	remarkable hypoglycemic action	remarkable hypoglycemic action
5	CC(=O)N1[C@@H]2CCCC[C@H]2NC2=C(C(=O)NC2)[C@H]1c1ccccc1C [Compound 88]	remarkable hypoglycemic action	remarkable hypoglycemic action	remarkable hypoglycemic action	remarkable hypoglycemic action
0.45	CCC(=O)N1[C@@H]2CCCC[C@H]2N(C)C2=C(C(=O)NC2)[C@H]1c1ccccc1C [Compound 91]	remarkable hypoglycemic action	remarkable hypoglycemic action	remarkable hypoglycemic action	remarkable hypoglycemic action
0.5	CC(=O)N1[C@@H]2CCCC[C@H]2NC2=C(C(=O)NC2)[C@H]1c1ccccc1C1CC1 [Compound 105]	remarkable hypoglycemic action	remarkable hypoglycemic action	remarkable hypoglycemic action	remarkable hypoglycemic action
0.6	CCC(=O)N1[C@@H]2CCCC[C@H]2NC2=C(C(=O)NC2)[C@H]1c1cccc(F)c1C [Compound 106]	remarkable hypoglycemic action	remarkable hypoglycemic action	remarkable hypoglycemic action	remarkable hypoglycemic action

From US7807663B2, “Therapeutic agents for diabetes” (Ajinomoto Co., Inc., priority 2003, dated 2010)
